# Measurements from patent US9173871B2, “Oxazole and thiazole compounds as beta-catenin modulators and uses thereof” (New York University, priority 2008, dated 2015).
# Key:
# HCT116 cells = assay: Flow cytometry cell cycle analysis of HCT116 cells; type: cell-based; conditions: HCT116, 16 hrs, FIG. 9
# Procedure: In order to test the inhibitory effect of candidate compounds on the transcription of endogenous Wnt/β-cat target genes in HCT116 cells, lysates were prepared from cells that were either treated with candidate small molecules or DMSO control. […] Cell cycle arrest of compound treated HCT116 cells was further confirmed by the reduced number of phosphorylated Histone3 (PH3) positive cells, when cultured in the presence of candidate compounds (FIG. 10).
# Flow Cytometry analysis was performed on HCT116 cells treated with candidate compounds for 16 hrs per standard protocols. Briefly, compound treated cells were harvested and washed in 1×PBS followed by fixation in 70% Ethanol at 4° C. for 16 hrs. Cells were then washed in 1×PBS and treated with RNAse at 37° C. for 30′. Following extensive washes in 1×PBS, cellular DNA was stained with 500 ug/ml of Propidium Iodide at room temperature for 10′. Cells were washed again in 1×PBS and analysed by flow cytometry on a FACScalibur machine (Beckson Dickinson) at the NYU flow cytometry core facility.
# LNCaP-abl cells [1] = assay: Flow cytometry DNA content (propidium iodide), LNCaP-abl; type: cell-based; conditions: 20 μM, 24 hr
# Procedure: (§1) A) Cells were cultured in phenol-red free RPMI with either 5% charcoal-stripped FBS supplemented with 0.1 nM R1881 (LNCaP) or 10% charcoal-stripped FBS alone (LNCaP-abl). […] Neutral red uptake assay was performed at the end of treatment to estimate the number of viable cells. […] Fixed cells were stained with Propidium Iodide and analyzed for DNA content using flow cytometry. The first and the second red peak and the dashed area represent G0/G1, M and S-phase cell population, respectively.
# [2] = tested on: AR and β-catenin target genes in LNCaP-abl cells; assay: Q-PCR time course of AR and β-catenin target genes in LNCaP-abl cells; type: cell-based; conditions: single dose at time 0, persists for 48 hours, FIG. 16A
# Procedure: (§2) ABL cells were treated similarly, but cultured in 5% charcoal-stripped phenol-red free RPMI. The mRNA was extracted at each time point and relative levels of indicated genes were analyzed by Q-PCR and normalized to RPL19. B) Protein from LNCaP cells was analyzed at each time point and immunoblotted with indicated antibodies.
# (§3) Expression of tubulin (included as an internal loading control) and β-catenin were unaffected.
# [3] = tested on: ARE-LUC androgen responsive reporter gene in LNCaP-abl; assay: AR responsive luciferase reporter (ARE-LUC / LB1-LUC) in LNCaP-abl cells; type: cell-based
# Procedure: (§4) LNCaP or LNCaP-abl (ABL) cells were cotransfected with 0.1 μg β-galactosidase and 0.2 μg S37A stabilized β-catenin together with the indicated luciferase reporter constructs; STF16-LUC (β-catenin reporter) and LB1-LUC (AR reporter). […] Luciferase activity was normalized to β-galactosidase expression.
# (§5) To determine the IC50 for the β-catenin/Wnt-responsive reporter, cells were cotransfected with β-galactosidase (LacZ) and a constitutively active S37A stabilized β-catenin mutant construct together with the reporter construct, STF16-LUC. To determine the IC50 for the AR-responsive construct, cells were cotransfected with LacZ and the AR responsive reporter construct, ARE-LUC. […] B) AR overexpression circumvents C3 repression of AR-responsive transcription. LNCaP cells were cotransfected with 0.1 μg LacZ and 0.2 μg of the AR responsive reporter construct, ARE-LUC, together with 0, 0.05, 0.1 and 0.2 μg of an AR expression vector. […] Luciferase activity was normalized to LacZ expression.
# (§6) 108(15): 5954-63], it had not been determined in prostate cancer cells. […] 69(8): 3332-8].
# [4] = Toxicity / maximum tolerated dose in mice; type: in vivo
# Procedure: Importantly, given the role of the Wnt/β-catenin pathway as a regulator of intestinal stem cells [Korinek et al., Nat Genet, 1998. 19(4): 379-83; van de Wetering et al., Cell, 2002. […] Accordingly, mice were injected 5 days/week for 5 weeks at a range of concentrations between 50-125 mg/Kg and compared to vehicle-alone control. Toxicity was monitored by assessing mouse weight, blood counts and mortality. The MTD determination was performed at the fee-for-service, anti-tumor assessment facility at Memorial Sloan Kettering Cancer Center.
# LNCaP cells = assay: Proliferation assay (neutral red uptake), LNCaP; type: cell-based; conditions: 20 μM daily
# Procedure: as §1
# [5] = target: Wnt/wg pathway, Wnt-responsive luciferase reporter dTF12; conditions: Gonsalves et al., PNAS 2011; read-out: IC50, β-catenin-responsive luciferase reporter (dTF12); cited from earlier work
# membrane bound β-catenin = assay: Immunofluorescence of membrane β-catenin in androgen-deprived LNCaP cells; type: cell-based
# From the text: An important objective in the initial screen for inhibitors of β-catenin responsive transcription (iCRT) was to isolate compounds that diminished the nuclear function of β-catenin without affecting β-catenin interaction with E-cadherin at the cell membrane.
# HEK 293 cells = assay: PARP cleavage immunoblot, HEK293; type: cell-based; conditions: HEK 293, 20 μM, 72 hr
# LNCaP-abl cells [6] = assay: Proliferation assay (neutral red uptake), LNCaP-abl; type: cell-based; conditions: 20 μM daily
# Procedure: as §1
# VCaP cells = assay: Growth of VCaP cells; type: cell-based; conditions: 20 μM daily
# LNCaP-abl cells [7] = assay: PARP cleavage immunoblot as marker of apoptosis, LNCaP-abl; type: cell-based; conditions: 20 μM, 72 hr
# [8] = tested on: Wnt/β-catenin STF-LUC reporter in LNCaP-abl cells; assay: β-catenin/Wnt-responsive STF16-LUC reporter with S37A β-catenin in LNCaP-abl cells; type: cell-based
# Procedure: as §4, §5, §6
# [9] = tested on: AR, PSA, c-myc, CDK1, UBE2C protein in LNCaP cells; assay: Western blot time course of AR and β-catenin target proteins in LNCaP cells; type: cell-based
# Procedure: as §2, §3
# [10] = 75 mg/Kg injected 5 days a week for 5 weeks
smiles,measurement,setting,value
CCc1ccc(-c2nc(CSCC(=O)NCCc3ccccc3)c(C)o2)cc1 [Compound C3],cell cycle effect,HCT116 cells,G0/G1 arrest
same,cell cycle effect by flow cytometry,LNCaP-abl cells [1],growth arrest of the cells in the G0/G1 phase
same,"AR, CDK1, UBE2C and c-myc mRNA",[2],diminished
same,IC50,[3]; LNCaP-abl (second of two values),1610 nM
same,AR reporter gene activity (LB1-LUC),"[3]; LNCaP-abl, 20 uM, 24 hr",inhibits
same,body weight,[4]; [10],did not lose weight
same,gut toxicity,[4]; [10],no gut toxicity
same,histology of all major organs,[4]; [10],normal
same,toxicity (overall),[4]; [10],not toxic
same,toxicity,[4]; continuous injection of 20 mg/Kg by mini-pump for 5 weeks,no toxicity
same,cell growth,LNCaP cells,completely abolished
same,IC50,[5],8.2 nM
same,ability of β-catenin to interact with E-cadherin at the cell membrane,membrane bound β-catenin,does not affect
same,apoptosis (PARP cleavage) in 293 cells,HEK 293 cells,does not induce apoptosis
same,cell growth,LNCaP-abl cells [6],completely abolished
same,cell growth,VCaP cells,completely abolished
same,PARP cleavage (apoptosis marker),LNCaP-abl cells [7],Increased levels of PARP cleavage
same,IC50,[8],890 nM
same,Wnt reporter gene activity (STF16-LUC),"[8]; 20 uM, 24 hr",inhibits
same,expression of tubulin and β-catenin protein,[9],unaffected
same,"levels of AR, PSA, c-myc, CDK1 and UBE2C protein",[9]; especially at 48-hour time point,diminished levels
